Experiment in all cases: inhibition of tumour cell growth, NCI panel, 48 h
Experiment [1] relates to A549 NSCLC.
In experiment [2] the test system is HS 578T breast.
Experiment [3] relates to SK-MEL-2 melanoma.
The subject of experiment [4] is K-562 leukemia.
The subject of experiment [5] is UACC-62 melanoma.
Experiment [6] deals with NCI-H226 lung.
Experiment [7] concerns A498 renal.
Experiment [8] deals with HCT-116 colon.
Experiment [9] deals with T-47D breast.
Experiment [10] deals with IGROV1 ovarian.

Several values for one entry are separate records, joined by “and”; a condition that tells them apart may be missing. Equal entries are not always repeated.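 Cultured in 96-well plates, cells were exposed to test compound for 48 hours across five concentrations. Here, GI50 denotes the concentration required for 50% inhibition of growth. TGI: concentration producing complete growth inhibition.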

Take `Fc1ccc(-c2ncn(CCCN3CCOCC3)c2-c2ccncc2)cc1`: the GI50 in experiment [1], in experiment [2], in experiment [3], in [4], in [5] and in experiment [6] was over 25 µM in each case. The GI50 in [7], in [8], in experiment [9] and in experiment [10] was over 25 µM throughout. For the same molecule, the TGI in [1], in [2], in experiment [3], in experiment [4], in experiment [5] and in experiment [6] was over 25 µM throughout. The TGI in [7], in experiment [8], in experiment [9] and in experiment [10] was over 25 µM each time.
As for `CCCS(=O)(=O)Nc1cccc(Nc2ncnc3cc(NC(=O)CCl)ccc23)c1Cl`, the GI50 in experiment [1] was 4.99 µM; in experiment [2] it was 3.32 µM; in [3] it was 3.58 µM; in [4], 1.04 µM; in [5] it was 0.871 µM; in experiment [6], 3.31 µM. For the same molecule, the GI50 in experiment [7] is 5.47 µM; in experiment [8], 0.968 µM; in experiment [9], 3.34 µM; in experiment [10], 2.61 µM. The TGI came out at 10.1 µM in experiment [1]; 17 µM in [2]; 8.92 µM in [3]; 17.1 µM in experiment [4]; 3.68 µM in [5]; 11.9 µM in [6]. The TGI is 11 µM in experiment [7], 4.03 µM in experiment [8], 9.99 µM in experiment [9] and 7.06 µM in experiment [10].
Take `CC1OC(CC(=O)O)Cc2c1c(O)c1c(O)cc(-c3cc(=O)c4c(=O)c5c(c(=O)c=4c3=O)CC(CC(=O)O)OC5C)c(O)c1c2O` (centres undefined): the GI50 is 53.7 µM in experiment [1]; 38.3 µM in experiment [2]; 27.7 µM in [3]; 61.1 µM in experiment [4]; 48.9 µM in experiment [5]; 46.8 µM in [6]. Moreover, the GI50 in [8] was 30.4 µM; in experiment [9], 30 µM. In addition, the TGI was over 100 µM in [1]; 48.2 µM and 62.5 µM in experiment [3]; over 83.6 µM in experiment [4]; 17.7 µM in experiment [5]; over 75.4 µM in experiment [6]; 58.9 µM in experiment [7]. In addition, the TGI in experiment [8] is 27.2 µM; in [10], over 86.3 µM.
In the case of `O=C1c2ccccc2C(=O)c2c1oc1c2c(=O)[nH]c2ccc(Cl)cc21`, the GI50 in [1] is 1.03 µM; in experiment [2] it was 0.264 µM; in experiment [3], 1.75 µM; in experiment [4], 0.375 µM; in experiment [5] it was 0.285 µM; in experiment [6], 0.143 µM. For the same molecule, the GI50 in [7] was 0.214 µM; in experiment [8], 0.307 µM; in experiment [9], 0.256 µM; in experiment [10], 0.222 µM. In addition, the TGI in [1] was found to be 2.92 µM; in experiment [2], 1.37 µM; in experiment [3], 5.18 µM; in [4], 2.01 µM; in experiment [5] it was 1.15 µM; in experiment [6], 0.355 µM. For the same molecule, the TGI in [7] came to 0.959 µM; in experiment [8], 1.09 µM; in experiment [9], 0.981 µM; in experiment [10], 0.746 µM.
With `S=C1SCN(Cc2ccccc2)CN1Cc1ccccc1`, the GI50 in [1] was 15.4 µM; in experiment [2], 3.02 µM; in experiment [3] it was 7.53 µM; in experiment [4], 1.15 µM; in experiment [5], 5.05 µM; in experiment [6] it was over 32.6 µM. For the same molecule, the GI50 in experiment [7] was 15.5 µM; in experiment [8], 3.05 µM; in experiment [9], 3.51 µM; in [10], 4.39 µM. Also, the TGI in experiment [1] is 37.6 µM; in [2], 25.6 µM; in experiment [3] it was 25.3 µM; in experiment [4], 9 µM; in experiment [5] it was 16.9 µM; in [6], over 50.8 µM. The TGI in experiment [7] was 43.6 µM; in experiment [8], 13 µM; in experiment [9], 21.1 µM; in experiment [10], 12.2 µM.
As for `O=C(Nc1cn[nH]c1-c1nc2ccc(CN3CCOCC3)cc2[nH]1)NC1CC1`, the TGI in [1] was 9.76 µM and > 10 µM; in [2] it was 0.717 µM and 0.681 µM; in experiment [3] it was 3.94 µM and > 10 µM; in [4], over 100 µM; in experiment [5] it was 3.5 µM and > 10 µM; in experiment [7], 3.91 µM. Besides, the TGI was 10.8 µM and > 10 µM in [8]; 6.95 µM and > 10 µM in [9]; 19.8 µM and > 10 µM in experiment [10]. Also, the GI50 in [2] is 0.118 µM and 0.125 µM; in [3], 1.35 µM and > 10 µM; in experiment [4], 0.543 µM and 1.59 µM; in [5] it was 1.37 µM and 3.81 µM; in experiment [6], 0.153 µM and 0.312 µM; in experiment [7], 0.373 µM. In addition, the GI50 in experiment [8] was 0.208 µM and 0.473 µM; in [9], 1.82 µM and 9.18 µM; in experiment [10] it was 2.75 µM and 2.67 µM.
In the case of `CCc1cccc(NC(=O)Nc2ccc(Oc3ccc4nc(NC(=O)OC)[nH]c4c3)cc2)c1`, the GI50 is 5.35 µM in [1]; 1.41 µM in [2]; 2.94 µM in [3]; 0.153 µM in experiment [4]; 1.93 µM in experiment [5]; 5.03 µM in [6]. The GI50 in experiment [7] was 3.2 µM; in experiment [8] it was 3.39 µM; in experiment [9] it was 3.56 µM; in experiment [10], 5.37 µM. For the same molecule, the TGI in experiment [1] is over 15.3 µM; in experiment [2] it was 19.2 µM; in experiment [3] it was 12.3 µM; in experiment [4] it was over 25 µM; in experiment [5] it was 10.1 µM; in experiment [6] it was over 20.7 µM. Further, the TGI is 17.8 µM in experiment [7], over 14.9 µM in experiment [8], over 15.6 µM in experiment [9] and over 25 µM in [10].

The record behind these values is PubChem BioAssay (NCI).
